Test results reported in ChEMBL document CHEMBL6127119 (J Med Chem, 2024).
≈ marks a conversion by molar mass, not a printed value. Calls of active or inactive are those of the source. The rule behind the calls is not given here.

Tests used:
Pseudomonas aeruginosa = assay: Antibacterial activity against Pseudomonas aeruginosa PAO1 incubated for 16 to 24 hrs by CLSI based broth microdilution method; assay type: functional; settings: time 16-24 hrs
Staphylococcus aureus [1] = assay: Post-antibiotic effect in Staphylococcus aureus MRSA252 assessed as time of effect at 10 to 20 times; assay type: functional
[2] = MRT (infinity) in CD-1 mouse at 10 mg/kg, iv measured for 24 hrs by UPLC analysis; assay type: ADME, organism-based; settings: in vivo
[3] = AUC (infinity) in CD-1 mouse at 10 mg/kg, iv measured for 24 hrs by UPLC analysis; assay type: ADME, organism-based; settings: in vivo
Enterococcus faecium [4] = assay: Antibacterial activity against vancomycin-resistant Enterococcus faecium harboring VanB phenotype incubated for 16 to 24 hrs by CLSI based broth microdilution method; assay type: functional; settings: time 16-24 hrs
[5] = Volume of distribution at steady state in CD-1 mouse at 10 mg/kg, iv measured for 24 hrs by UPLC analysis; assay type: ADME, organism-based; settings: in vivo, read-out: Vdss
Enterococcus faecium [6] = assay: Antibacterial activity against vancomycin-resistant Enterococcus faecium harboring VanA phenotype incubated for 16 to 24 hrs by CLSI based broth microdilution method; assay type: functional; settings: time 16-24 hrs
[7] = Toxicity in BALB/c mouse infected with methicillin-resistant Staphylococcus aureus MRSA252 assessed as survival rate at 20 mg/kg, iv for 7 days; assay type: organism-based; settings: in vivo, 168 h, time 7 day
Staphylococcus aureus [8] = assay: Antibacterial activity against methicillin-susceptible Staphylococcus aureus incubated for 16 to 24 hrs by CLSI based broth microdilution method; assay type: functional; settings: time 16-24 hrs
Staphylococcus aureus [9] = assay: Induction of cytoplasmic membrane permeabilization in methicillin-resistant Staphylococcus aureus MRSA252 at […] measured for 40 mins by PI/NPN staining based analysis; assay type: functional, organism-based; settings: dose 128.0 µg/ml
Staphylococcus aureus [10] = assay: Induction of drug resistance in vancomycin-sensitive Staphylococcus aureus MRSA252 assessed as fold increase in MIC measured after 16 days of serial passages by broth microdilution method; assay type: functional; settings: time 16 day
[11] = Toxicity in BALB/c mouse infected with methicillin-resistant Staphylococcus aureus MRSA252 assessed as survival rate at 10 mg/kg, iv for 7 days; assay type: organism-based; settings: in vivo, 168 h, time 7 day
Staphylococcus aureus [12] = assay: Post-antibiotic effect in Staphylococcus aureus MRSA252 assessed as change in bacterial titer at 10 times measured after 2 hrs; assay type: functional
[13] = AUClast in CD-1 mouse at 10 mg/kg, iv measured for 24 hrs by UPLC analysis; assay type: ADME, organism-based; settings: in vivo
Acinetobacter baumannii = assay: Antibacterial activity against Carbapenem-resistant Acinetobacter baumannii clinical isolate incubated for 16 to 24 hrs by CLSI based broth microdilution method; assay type: functional; settings: time 16-24 hrs
Staphylococcus aureus [14] = assay: Post-antibiotic effect in Staphylococcus aureus MRSA252 assessed as change in bacterial titer at 20 times measured after 2 hrs; assay type: functional
Escherichia coli = assay: Antibacterial activity against Escherichia coli AB1157 incubated for 16 to 24 hrs by CLSI based broth microdilution method; assay type: functional; settings: time 16-24 hrs
Klebsiella pneumoniae = assay: Antibacterial activity against Klebsiella pneumoniae clinical isolate incubated for 16 to 24 hrs by CLSI based broth microdilution method; assay type: functional; settings: time 16-24 hrs
[15] = Clearance in CD-1 mouse at 10 mg/kg, iv measured for 24 hrs by UPLC analysis; assay type: ADME, organism-based; settings: in vivo
[16] = Half life in CD-1 mouse at 10 mg/kg, iv measured for 24 hrs by UPLC analysis; assay type: ADME, organism-based; settings: in vivo
Enterococcus faecalis = assay: Induction of inner membrane permeabilization in Enterococcus faecalis ATCC29212 at […] measured for 20 mins by DiSC3(5) staining based analysis; assay type: functional, organism-based; settings: dose 128.0 µg/ml
Staphylococcus aureus [17] = assay: Antibacterial activity against vancomycin-intermediate Staphylococcus aureus incubated for 16 to 24 hrs by CLSI based broth microdilution method; assay type: functional; settings: time 16-24 hrs
Enterococcus faecium [18] = assay: Antibacterial activity against vancomycin-resistant Enterococcus faecium harboring VanM phenotype incubated for 16 to 24 hrs by CLSI based broth microdilution method; assay type: functional; settings: time 16-24 hrs
Staphylococcus aureus [19] = assay: Antibacterial activity against Staphylococcus aureus Mu50 assessed as fold decrease in MIC at 1:1 ratio of compound and Ac2KAA at […] incubated for 16 to 24 hrs by absorbance based assay relative to control; assay type: functional; settings: dose 128 µg/ml; time 16-24 hrs
Staphylococcus aureus [20] = assay: Antibacterial activity against Staphylococcus aureus Mu50 at 1:1 ratio of compound and Ac2KAA at […] incubated for 16 to 24 hrs by absorbance based assay; assay type: functional
HEK-293T [21] = assay: Cytotoxicity against HEK293T cells at 100 ug/ml incubated for 72 hrs by MTT assay; assay type: toxicity, cell-based; settings: human, dose 100 µg/ml
HEK-293T [22] = assay: Cytotoxicity against HEK293T cells upto […] incubated for 72 hrs by MTT assay; assay type: toxicity, cell-based; settings: human

SMILES | MIC (Pseudomonas aeruginosa) | MIC (Enterococcus faecium [4]) | MIC (Enterococcus faecium [6]) | MIC (Staphylococcus aureus [8]) | fold change (FC) (Staphylococcus aureus [10]) | MIC (Acinetobacter baumannii) | MIC (Escherichia coli) | MIC (Klebsiella pneumoniae) | MIC (Staphylococcus aureus [17]) | MIC (Enterococcus faecium [18]) | also measured
CC(C)C[C@@H](N)C(=O)N[C@H]1C(=O)N[C@@H](CC(N)=O)C(=O)N[C@H]2C(=O)N[C@H]3C(=O)N[C@H](C(=O)N[C@H](C(=O)O)c4cc(O)cc(O)c4-c4cc3ccc4O)[C@H](O)c3ccc(c(Cl)c3)Oc3cc2cc(c3O[C@@H]2O[C@H](CO)[C@@H](O)[C@H](O)[C@H]2O[C@H]2C[C@](C)(N)[C@H](O)[C@H](C)O2)Oc2ccc(cc2Cl)[C@H]1O | > 128 µg/mL | 128 µg/mL (≈ 89.2 µM) | > 128 µg/mL | 0.5 µg/mL (≈ 0.348 µM) | 4 | > 128 µg/mL | > 128 µg/mL | > 128 µg/mL | 2 µg/mL (≈ 1.39 µM) | 128 µg/mL (≈ 89.2 µM) | Time (Staphylococcus aureus [1]): 1 h; MRT inf [2]: 33.6 min; AUC(0-inf) [3]: 6300 ng·h/mL; Vd [5]: 0.919 L/kg; Activity [7]: 62.5%; Activity (Staphylococcus aureus [9]): inactive; Activity [11]: 75%; Activity (Staphylococcus aureus [12]): 1 log10CFU/ml; AUC(0-t) at 24 h [13]: 5210 ng·h/mL; Activity (Staphylococcus aureus [14]): 0.2 log10CFU/ml; clearance [15]: 27.3 mL/min/kg; half-life [16]: 31.8 min; Activity (Enterococcus faecalis): inactive; fold change (FC) (Staphylococcus aureus [19]): >32; MIC (Staphylococcus aureus [20]): > 128 µg/mL
CCCCCCCCCC(=O)N[C@@H](Cc1c[nH]c2ccccc12)C(=O)N[C@@H](CC(N)=O)C(=O)N[C@@H](CC(=O)O)C(=O)N[C@@H]1C(=O)NCC(=O)N[C@@H](CCCN)C(=O)N[C@@H](CC(=O)O)C(=O)N[C@H](C)C(=O)N[C@@H](CC(=O)O)C(=O)NCC(=O)N[C@H](CO)C(=O)N[C@@H]([C@@H](C)CC(=O)O)C(=O)N[C@@H](CC(=O)c2ccccc2N)C(=O)O[C@@H]1C | > 128 µg/mL | 8 µg/mL (≈ 4.94 µM) | 8 µg/mL (≈ 4.94 µM) | 2 µg/mL (≈ 1.23 µM) | 8 | 128 µg/mL (≈ 79 µM) | 128 µg/mL (≈ 79 µM) | > 128 µg/mL | 4 µg/mL (≈ 2.47 µM) | 8 µg/mL (≈ 4.94 µM) | 
CN[C@H](CC(C)C)C(=O)N[C@H]1C(=O)N[C@@H](CC(N)=O)C(=O)N[C@H]2C(=O)N[C@H]3C(=O)N[C@H](C(=O)N[C@H](C(=O)NCCCCCCCCNC(=N)N)c4cc(O)cc(O)c4-c4cc3ccc4O)[C@H](O)c3ccc(c(Cl)c3)Oc3cc2cc(c3O[C@@H]2O[C@H](CO)[C@@H](O)[C@H](O)[C@H]2O[C@H]2C[C@](C)(N)[C@H](O)[C@H](C)O2)Oc2ccc(cc2Cl)[C@H]1O | 128 µg/mL (≈ 79.1 µM) | 8 µg/mL (≈ 4.95 µM) | 8 µg/mL (≈ 4.95 µM) | 0.25 µg/mL (≈ 0.155 µM) |  | 32 µg/mL (≈ 19.8 µM) | 16 µg/mL (≈ 9.89 µM) | 128 µg/mL (≈ 79.1 µM) | 1 µg/mL (≈ 0.618 µM) | 16 µg/mL (≈ 9.89 µM) | Activity (HEK-293T [21]): Non-Toxic; Activity (HEK-293T [22]): Non-Toxic
